Values after ≈ are worked out from the molar mass of the structure shown.
Assays:
[1] = tested on: Staphylococcus aureus; test: Agar well diffusion, zone of inhibition; format: cell-based; conditions: 37 °C, 24 h; for Zone of Inhibition: 100 µg/mL
Procedure: The antibacterial activity of the isolated compounds (morin, phloroglucinol, and 1-hexyl benzene) was determined using agar well diffusion method. Muller–Hinton agar media was prepared and autoclaved at 15 lbs pressure for 20 min and cooled to 45 °C. […] The entire wells were filled with 100 µL of the isolated compounds (stock solution: 1 mg/mL) using microtiter-pipette and allowed to diffuse at room temperature for 2 h. The plates were incubated at 37 °C for 24 h. In the center hole, Imipenem was added which served as positive control. Simultaneous, addition of an equal concentration of DMSO solvent instead of isolated compounds was used as blank. After incubation, the zones of inhibition were measured in millimeters (mm) and mean values were calculated. The experiments were performed in triplicates.

[2] = molecular target: Type-I α-glucosidase (Baker Yeast) (Saccharomyces cerevisiae, UniProt P53341); test: In vitro α-glucosidase inhibition assay (PNPG); format: biochemical; conditions: read-out: % α-Glucosidase Inhibition Mean ± SEM
Chain of Type-I α-glucosidase (Baker Yeast) (P53341 whole entry): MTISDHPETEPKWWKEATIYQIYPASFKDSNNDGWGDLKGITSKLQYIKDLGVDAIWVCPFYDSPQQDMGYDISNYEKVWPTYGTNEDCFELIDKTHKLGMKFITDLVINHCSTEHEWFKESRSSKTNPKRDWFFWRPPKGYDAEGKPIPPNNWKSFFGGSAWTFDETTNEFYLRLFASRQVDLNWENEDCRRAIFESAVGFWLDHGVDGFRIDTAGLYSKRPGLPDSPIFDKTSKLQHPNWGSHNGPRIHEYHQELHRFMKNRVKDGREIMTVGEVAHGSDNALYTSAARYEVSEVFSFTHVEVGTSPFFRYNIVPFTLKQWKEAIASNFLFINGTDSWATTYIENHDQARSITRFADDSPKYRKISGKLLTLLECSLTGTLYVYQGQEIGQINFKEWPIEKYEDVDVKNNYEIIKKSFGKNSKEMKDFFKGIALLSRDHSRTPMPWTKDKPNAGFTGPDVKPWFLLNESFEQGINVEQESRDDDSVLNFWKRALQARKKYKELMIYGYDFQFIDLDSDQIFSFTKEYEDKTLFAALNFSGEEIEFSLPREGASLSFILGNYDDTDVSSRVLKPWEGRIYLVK
Text: Chemicals such as Tween-80 (Scharlau-chem., Barcelona, Spain), normal saline solution (Utsoka Pharma, Las Bela Baluchistan, Pakistan), lipid profile tests kits (Human, Hamburg, Germany), renal profile tests kits, and antioxidant enzymes kits (Biomed: Germany; diagnostic) were used in in vivo study. Mueller Hinton (MH) agar and broth (Merck, Modderfontein, South Africa) were used to culture the bacterial strains. Various solvents such as methanol, n-hexane, ethyl acetate, and chloroform (Merck, Darmstadt, Germany) were also used in this study.
The α-glucosidase inhibition potential of morin was determined according to the reported method with minor changes. The reaction mixture was prepared by taking 100 μL α-glucosidase (0.5 unit/mL), 600 μL phosphate buffer (0.1 M; pH 6.9), and 50 μL of isolated compounds (morin, phloroglucinol, and 1-hexyl benzene) with serial dilutions of 31.05, 62.5, 125, 250, 500 and 1000 µg/mL. All the reaction mixtures were incubated at 37 °C for 15 min. The enzymatic reactions were started by adding 100 μL substrate (p-nitro-phenyl-α-D-glucopyranoside) solution (5 mM) formed in phosphate buffer (0.1 M; pH 6.9), finally incubated at 37 °C for 15 min. The reaction was completed by adding sodium carbonate (400 μL; 0.2 M) solution and then at 405 nm absorbance was measured. The blank solution was prepared containing only isolated compounds without α-glucosidase. Percent α-glucosidase inhibition potential was calculated using Equation (3): (3) % α − glucosidase Inhibition =control absorbance−sample absorbance/control absorbance×100
(§1) All the in vitro and in vivo experiments were analyzed in three replicates and determined as mean ± SEM. Student’s t-test and one way ANOVA followed by Dunnett’s post hoc multiple comparison test was used. p ≤ 0.05 were considered as significant. Linear regression analysis was used to calculate the IC50 value for % DPPH, ABTS, α-amylase, and α-glucosidase inhibition against the different concentrations of the test samples by means of Excel program 2007.

[3] = tested on: Staphylococcus aureus; test: Broth dilution MIC determination; format: cell-based; conditions: 37 °C, 24 h, read-out: Minimum Inhibitory Concentrations
Procedure: Stock solutions of morin, phloroglucinol, and 1-hexyl benzene were prepared in dimethylsulphoxide (DMSO). […] Sterile centrifuge tubes were arranged in sets of rows for each bacterial inoculum to cover the different concentration of isolated compounds in triplicate. […] A sterility control tube and a growth control tube were also incubated (for each strain). The tubes were incubated at 37 °C for 24 h. After incubation, 40 μL of a 0.4 mg/mL solution of para iodonitrotetrazolium (INT) chloride was added to each tube as an indicator of microbial growth. […] The evaluation for the inhibition of microbial growth was based on the color change of INT to pink, while no color change indicates the absence of growth. The MIC is the lowest concentration of the compounds at which there is no visible growth in the tubes. The concentration that inhibited bacterial growth completely (the first clear tube) was taken as the MIC value. Experiments were performed in triplicate and mean values are presented. […] A negative control experiment was conducted using only DMSO.

[4] = molecular target: T1, Type-VI α-amylase (porcine pancreas) (Sus scrofa, UniProt P00690); test: In vitro α-amylase inhibition assay (DNSA); format: biochemical; conditions: for inhibition at 31.05 µg/mL / inhibition at 62.5 µg/mL / inhibition at 125 µg/mL / inhibition at 250 µg/mL / inhibition at 500 µg/mL / inhibition at 1000 µg/mL: read-out: % α-Amylase Inhibition Mean ± SEM; for IC50: linear regression of % inhibition vs concentration
T1 construct: purchased Sigma Aldrich (Darmstadt, Germany); host or cells: porcine pancreas
T1 sequence (P00690 16-511): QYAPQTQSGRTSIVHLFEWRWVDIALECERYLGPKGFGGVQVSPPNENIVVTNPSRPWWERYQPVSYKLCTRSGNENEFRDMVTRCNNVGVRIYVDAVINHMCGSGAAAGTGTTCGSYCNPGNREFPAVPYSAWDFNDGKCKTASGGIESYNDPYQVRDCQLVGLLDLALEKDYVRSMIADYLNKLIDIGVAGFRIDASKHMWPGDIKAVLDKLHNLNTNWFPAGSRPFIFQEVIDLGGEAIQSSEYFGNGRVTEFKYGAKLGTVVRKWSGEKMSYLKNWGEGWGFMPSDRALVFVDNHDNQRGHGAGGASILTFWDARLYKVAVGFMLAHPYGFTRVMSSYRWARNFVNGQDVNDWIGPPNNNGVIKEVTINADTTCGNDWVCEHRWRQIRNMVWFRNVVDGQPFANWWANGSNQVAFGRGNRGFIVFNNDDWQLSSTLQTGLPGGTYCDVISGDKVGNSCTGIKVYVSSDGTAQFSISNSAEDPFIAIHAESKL
Procedure: The α-amylase inhibition activity of morin was assessed using 3, 5-dinitrosalicylic acid (DNSA) assay. Morin, phloroglucinol, and 1-hexyl benzene were dissolved in mixture of 10% DMSO, 0.02M Na2HPO4/NaH2PO4 buffer, and 0.006M NaCl (pH 6.9) and finally dilutions (31.05, 62.5, 125, 250, 500 and 1000 µg/mL) were prepared. In total, 200 μL α-amylase (2 units/mL) was mixed with 200 μL morin and incubated at 30 °C for 10 min. After that, 200 μL starch (1%) was added to each serial dilution and incubated for 3 min. To stop the reaction 200 μL sodium potassium tartrate tetrahydrate reagent, 2M NaOH, and […] DNSA (96mM) reagent were added to the reaction mixture. The reaction mixtures were boiled for 10 min at 85–90 °C in a water bath. After cooling the mixture was diluted with 5mL distilled water and finally at 540 nm absorbance was recorded. A blank solution was prepared containing only isolated compound morin but no enzyme. […] The α-amylase enzyme inhibitory activity was calculated by the following Equation (2): (2) % α − amylase Inhibition =control absorbance−sample absorbance/control absorbance×100
as §1

Row | SMILES | Zone of Inhibition [1] [mm] | zone of inhibition at 100 µg/mL [1] [mm] | inhibition at 31.05 µg/mL [2] [%] | inhibition at 62.5 µg/mL [2] [%] | inhibition at 125 µg/mL [2] [%] | inhibition at 250 µg/mL [2] [%] | inhibition at 500 µg/mL [2] [%] | inhibition at 1000 µg/mL [2] [%] | MIC [3] [µg/mL] | inhibition at 31.05 µg/mL [4] [%] | inhibition at 62.5 µg/mL [4] [%] | inhibition at 125 µg/mL [4] [%] | inhibition at 250 µg/mL [4] [%] | inhibition at 500 µg/mL [4] [%] | inhibition at 1000 µg/mL [4] [%] | IC50 [4] [µM]
1 | O=c1c(O)c(-c2ccc(O)cc2O)oc2cc(O)cc(O)c12 [Morin, 2-(2,4-Dihydroxyphenyl)-3,5,7-trihydroxychromen-4-one] | 13 ± 0.4 | 13 ± 0.4 | 42 ± 1.4 | 48 ± 0.3 | 52 ± 0.5 | 59 ± 1.4 | 66 ± 0.4 | 79 ± 1 | 68 ± 1.3 (≈ 225 µM) | 37 ± 1.1 | 44 ± 2.1 | 54 ± 1.4 | 60 ± 0.5 | 67 ± 1.4 | 75 ± 1.5 | 182
2 | Oc1cc(O)cc(O)c1 [Phloroglucinol, Benzene-1,3,5-triol] | 9.5 ± 2.1 | 9.5 ± 2.1 | 27 ± 1 | 30 ± 1.4 | 37 ± 1.5 | 43 ± 0.4 | 48 ± 0.5 | 55 ± 2.1 | 192 ± 2.3 (≈ 1520 µM) | 29 ± 1 | 32 ± 1.4 | 39 ± 1.5 | 42 ± 0.4 | 55 ± 1.1 | 63 ± 0.5 | 753
3 | CCCCCCc1ccccc1 [1-Hexyl benzene, 1-hexylbenzene] | 3.4 ± 0.4 | 3.4 ± 0.4 | 28 ± 1.2 | 32 ± 0.4 | 39 ± 1.1 | 45 ± 0.5 | 50 ± 1.2 | 58 ± 2.1 | 205 ± 2.1 (≈ 1260 µM) | 22 ± 1.1 | 28 ± 2.1 | 37 ± 1.4 | 44 ± 0.5 | 49 ± 2.1 | 55 ± 1.5 | 709

— article PMC8348310, “Antioxidants Isolated from Elaeagnus umbellata (Thunb.) Protect against Bacterial Infections and Diabetes in Streptozotocin-Induced Diabetic Rat Model” (Molecules, 2021)
